The structures appear in SMILES notation. Where “and” joins values, the source holds several entries; their conditions need not be identical. Identical values can stand only once. Toxic doses and inconclusive results are not listed.

The test system of this experiment is CD2F1 mice, L1210 leukemia ip, survival T/C. Put plainly: NCI In Vivo Anticancer Drug Screen. Data for tumor model L1210 Leukemia (intraperitoneal) in CD2F1 (CDF1) mice. Particulars: higher = longer survival. Put shortly: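 Ratio T/C, where T is the treated-group value and C the vehicle-dosed control value, from mice implanted with a transplantable tumor.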
Where [1] appears, read: endpoint: mean survival time, dose: 100.0 mg/kg/injection, schedule: Q01DX009 (ip), vehicle: saline with Tween-80.
The mark [2] stands for this setting: endpoint: mean survival time, dose: 200.0 mg/kg/injection, schedule: Q01DX009 (ip), vehicle: saline with Tween-80.
Where [3] appears, read: endpoint: mean survival time, dose: 400.0 mg/kg/injection, schedule: Q01DX009 (ip), vehicle: saline with Tween-80.
Setting [4] is: endpoint: mean survival time, dose: 50.0 mg/kg/injection, schedule: Q01DX009 (ip), vehicle: saline with Tween-80.
Setting [5] is: endpoint: mean survival time, dose: 100.0 mg/kg/injection, schedule: Q04DX003 (ip), vehicle: saline with Tween-80.
[6] abbreviates: endpoint: mean survival time, dose: 200.0 mg/kg/injection, schedule: Q01DX001 (ip), vehicle: saline with Tween-80.
[7] abbreviates: endpoint: mean survival time, dose: 200.0 mg/kg/injection, schedule: Q04DX003 (ip), vehicle: saline with Tween-80.
[8] abbreviates: endpoint: mean survival time, dose: 400.0 mg/kg/injection, schedule: Q01DX001 (ip), vehicle: saline with Tween-80.
The mark [9] stands for this setting: endpoint: mean survival time, dose: 400.0 mg/kg/injection, schedule: Q04DX003 (ip), vehicle: saline with Tween-80.
[10] abbreviates: endpoint: mean survival time, dose: 100.0 mg/kg/injection, schedule: Q01DX001 (ip), vehicle: Klucel (hydroxypropylcellulose) (HPC).
Where [11] appears, read: endpoint: mean survival time, dose: 200.0 mg/kg/injection, schedule: Q01DX001 (ip), vehicle: Klucel (hydroxypropylcellulose) (HPC).
Where [12] appears, read: endpoint: mean survival time, dose: 400.0 mg/kg/injection, schedule: Q01DX001 (ip), vehicle: Klucel (hydroxypropylcellulose) (HPC).

For the molecule `O=C(COc1ccc(Cl)c(Cl)c1)NCCc1ccccn1`, the T/C is 95 % of control under setting [1], 97 % of control under setting [2] and 95 % of control under setting [3].
On to `CCCC/C=C\C1CCCCC1C` (centres undefined), for which the T/C is, setting by setting: under setting [4], 87 % of control; under setting [1], 96 % of control; under setting [2], 104 % of control.
Turning to `Cc1cc(=O)n(C)c2c(C)cccc12`, the T/C under setting [1] is 98 % of control, the T/C under setting [2] was 92 % of control and the T/C under setting [3] was 95 % of control.
In the case of `O=C(N/N=C/c1ccc2c(c1)CCC2)c1cccc([N+](=O)[O-])c1`, the T/C runs as follows: under setting [5], 91 % of control; under setting [6], 94 % of control; under setting [7], 94 % of control; under setting [8], 101 % of control; under setting [9], 106 % of control.
As for `Cc1ccc(C(C)C)c(OCC2=NCCN2C)c1`, the T/C (endpoint: mean survival time, dose: 100.0 mg/kg/injection, schedule: Q04DX003 (ip), vehicle: saline) is 106 % of control and the T/C (endpoint: mean survival time, dose: 200.0 mg/kg/injection, schedule: Q04DX003 (ip), vehicle: saline) is 106 % of control.
Turning to `CCOC(=O)c1nc2c(n(O)c1=N)CCC/C2=N\O`, the T/C reads like this: (endpoint: mean survival time, dose: 100.0 mg/kg/injection, schedule: Q04DX003 (ip), vehicle: Klucel (hydroxypropylcellulose) (HPC)) 95 % of control; (endpoint: mean survival time, dose: 200.0 mg/kg/injection, schedule: Q04DX003 (ip), vehicle: Klucel (hydroxypropylcellulose) (HPC)) 102 % of control; (endpoint: mean survival time, dose: 400.0 mg/kg/injection, schedule: Q04DX003 (ip), vehicle: Klucel (hydroxypropylcellulose) (HPC)) 91 % of control.
Consider `C[C@]12CC[C@H](O)CC1=CC[C@@H]1[C@@H]2CC[C@]2(C)C(=O)CC[C@@H]12`, for which the T/C is 98 % of control (endpoint: mean survival time, dose: 50.0 mg/kg/injection, schedule: Q01DX009 (ip), vehicle: Klucel (hydroxypropylcellulose) (HPC)); 102 % of control (endpoint: mean survival time, dose: 100.0 mg/kg/injection, schedule: Q01DX009 (ip), vehicle: Klucel (hydroxypropylcellulose) (HPC)); 94 % of control (endpoint: mean survival time, dose: 200.0 mg/kg/injection, schedule: Q01DX009 (ip), vehicle: Klucel (hydroxypropylcellulose) (HPC)); 101 % of control (endpoint: median survival time, dose: 25.0 mg/kg/injection, schedule: Q01DX009 (ip), vehicle: saline with Tween-80); 101 % of control (endpoint: median survival time, dose: 50.0 mg/kg/injection, schedule: Q01DX009 (ip), vehicle: saline with Tween-80); 92 % of control (endpoint: median survival time, dose: 100.0 mg/kg/injection, schedule: Q01DX009 (ip), vehicle: saline with Tween-80). Further, the T/C is 92 % of control (endpoint: median survival time, dose: 200.0 mg/kg/injection, schedule: Q01DX009 (ip), vehicle: saline with Tween-80) and 91 % of control (endpoint: median survival time, dose: 400.0 mg/kg/injection, schedule: Q01DX009 (ip), vehicle: saline with Tween-80).
On to `C[As](C)SCC1OC(n2ncc(=O)[nH]c2=O)C2OC(C)(C)OC12` (centres undefined), for which the T/C is, setting by setting: (endpoint: median survival time, dose: 12.5 mg/kg/injection, schedule: Q01DX005 (ip), vehicle: distilled water + Tween-80) 97 % of control; (endpoint: median survival time, dose: 25.0 mg/kg/injection, schedule: Q01DX005 (ip), vehicle: distilled water + Tween-80) 105 % of control; (endpoint: median survival time, dose: 50.0 mg/kg/injection, schedule: Q01DX005 (ip), vehicle: distilled water + Tween-80) 94 % of control; (endpoint: median survival time, dose: 100.0 mg/kg/injection, schedule: Q01DX005 (ip), vehicle: distilled water + Tween-80) 101 % of control; (endpoint: median survival time, dose: 200.0 mg/kg/injection, schedule: Q01DX005 (ip), vehicle: distilled water + Tween-80) 101 % of control.
Take `CSc1cc(NC(C)=O)nc2nc[nH]c12`: the T/C by setting is: under setting [10], 98 % of control; under setting [11], 97 % of control.
For `O=C(NC(=O)c1ccccc1)c1ccccc1`, the T/C is, setting by setting: under setting [10], 101 % of control; under setting [5], 103 % of control; under setting [11], 102 % of control; under setting [7], 102 % of control; under setting [12], 96 % of control; under setting [9], 97 % of control.
`O=C(O)CC(=O)O.[NH-]C1CCCCC1C1CCCCC1[NH-].[Pt+2]` (centres undefined): the T/C is 106 % of control (endpoint: mean survival time, dose: 3.12 mg/kg/injection, schedule: Q04DX003 (ip), vehicle: distilled water + Tween-80); 112 % of control (endpoint: mean survival time, dose: 6.25 mg/kg/injection, schedule: Q04DX003 (ip), vehicle: distilled water + Tween-80); 119 % of control (endpoint: mean survival time, dose: 12.5 mg/kg/injection, schedule: Q04DX003 (ip), vehicle: distilled water + Tween-80); 165 % of control (endpoint: mean survival time, dose: 50.0 mg/kg/injection, schedule: Q04DX003 (ip), vehicle: distilled water + Tween-80); 201 % of control (endpoint: mean survival time, dose: 100.0 mg/kg/injection, schedule: Q04DX003 (ip), vehicle: distilled water + Tween-80); 194 % of control (endpoint: mean survival time, dose: 200.0 mg/kg/injection, schedule: Q04DX003 (ip), vehicle: distilled water + Tween-80).
With `Cc1c(CNc2ccc(C(=O)NC(CC(=O)O)C(=O)O)cc2)ccc2nc(N)nc(N)c12` (centres undefined), the T/C is 173 % of control (endpoint: mean survival time, dose: 0.18 mg/kg/injection, schedule: Q01DX009 (ip), vehicle: saline); 121 % of control (endpoint: mean survival time, dose: 0.39 mg/kg/injection, schedule: Q01DX009 (ip), vehicle: saline); 94 % of control (endpoint: mean survival time, dose: 0.78 mg/kg/injection, schedule: Q01DX009 (ip), vehicle: saline with Tween-80); 107 % of control (endpoint: mean survival time, dose: 0.78 mg/kg/injection, schedule: Q01DX009 (ip), vehicle: saline); 86 % of control and 95 % of control (endpoint: mean survival time, dose: 1.56 mg/kg/injection, schedule: Q01DX009 (ip), vehicle: saline); 93 % of control (endpoint: mean survival time, dose: 3.12 mg/kg/injection, schedule: Q01DX009 (ip), vehicle: saline). For the same molecule, the T/C (endpoint: mean survival time, dose: 6.25 mg/kg/injection, schedule: Q01DX009 (ip), vehicle: saline) is 92 % of control; the T/C (endpoint: mean survival time, dose: 25.0 mg/kg/injection, schedule: Q01DX001 (ip), vehicle: saline) was 170 % of control; the T/C (endpoint: mean survival time, dose: 50.0 mg/kg/injection, schedule: Q01DX001 (ip), vehicle: saline) is 117 % of control.
On to `O=[N+]([O-])c1ccc(N/N=C(\CCl)c2ccccc2)c([N+](=O)[O-])c1`, for which the T/C was 92 % of control (endpoint: mean survival time, dose: 100.0 mg/kg/injection, schedule: Q01DX001 (ip), vehicle: saline with Tween-80); 97 % of control under setting [6]; 92 % of control under setting [8].
Turning to `CC1(C)OCC(C2CCC3(C)C4=CCC5C(C)(C)C(O)CCC5(C)C4CCC23C)CC(O)C1O` (centres undefined), the T/C runs as follows: (endpoint: mean survival time, dose: 2.5 mg/kg/injection, schedule: Q01DX009 (ip), vehicle: Klucel (hydroxypropylcellulose) (HPC)) 101 % of control; (endpoint: mean survival time, dose: 5.0 mg/kg/injection, schedule: Q01DX009 (ip), vehicle: Klucel (hydroxypropylcellulose) (HPC)) 95 % of control; (endpoint: mean survival time, dose: 10.0 mg/kg/injection, schedule: Q01DX009 (ip), vehicle: Klucel (hydroxypropylcellulose) (HPC)) 97 % of control.
For the molecule `COC(=O)c1cc(-c2ccccc2)n(-c2ccccc2)c1-c1ccccc1`, the T/C reads like this: under setting [10], 94 % of control; (endpoint: mean survival time, dose: 100.0 mg/kg/injection, schedule: Q04DX002 (ip), vehicle: saline with Tween-80) 90 % of control; under setting [11], 89 % of control; (endpoint: mean survival time, dose: 200.0 mg/kg/injection, schedule: Q04DX002 (ip), vehicle: saline with Tween-80) 87 % of control; under setting [12], 89 % of control; (endpoint: mean survival time, dose: 400.0 mg/kg/injection, schedule: Q04DX002 (ip), vehicle: saline with Tween-80) 94 % of control.
Turning to `COc1ccc(CCN2COc3ccc4ccc(=O)oc4c3C2)cc1OC`, the T/C under setting [1] is 92 % of control, the T/C under setting [2] was 97 % of control and the T/C under setting [3] is 97 % of control.
In the case of `CSc1nnc(SC)c(SC)n1`, the T/C (endpoint: mean survival time, dose: 75.0 mg/kg/injection, schedule: Q01DX001 (ip), vehicle: saline) was 96 % of control.
Turning to `CC/C=C\CC1OCCO1`, the T/C under setting [4] was 95 % of control, the T/C under setting [1] was 92 % of control and the T/C under setting [2] was 95 % of control.

For the origin of these results see PubChem BioAssay AID256 (DTP/NCI, 2004).
